Test results reported in patent publication US20090197933A1, “IMIDAZOLINYLMETHYL ARYL SULFONAMIDE” (priority 2008, published 2009).

Columns and labels:
alpha-1A adrenoceptors = target: T1, alpha-1A adrenoceptors (Homo sapiens, UniProt P35348); test: alpha-1A adrenoceptor partial agonist activity (intrinsic activity and pEC50); type: cell-based
T1 sequence (P35348 1-466): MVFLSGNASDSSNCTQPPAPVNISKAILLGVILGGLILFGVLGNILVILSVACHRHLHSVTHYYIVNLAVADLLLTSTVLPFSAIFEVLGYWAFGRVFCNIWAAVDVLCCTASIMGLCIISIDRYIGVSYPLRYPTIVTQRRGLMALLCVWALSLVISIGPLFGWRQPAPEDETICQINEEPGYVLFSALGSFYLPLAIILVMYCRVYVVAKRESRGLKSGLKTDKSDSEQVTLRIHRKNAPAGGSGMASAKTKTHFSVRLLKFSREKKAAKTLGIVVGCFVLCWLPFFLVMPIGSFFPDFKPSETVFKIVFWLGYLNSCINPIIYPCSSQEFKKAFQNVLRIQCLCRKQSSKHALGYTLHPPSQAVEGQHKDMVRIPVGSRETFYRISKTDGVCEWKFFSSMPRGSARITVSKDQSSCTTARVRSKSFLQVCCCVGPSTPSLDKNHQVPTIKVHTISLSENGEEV

[1] = test system: Female, Dutch Belted rabbits; test: Anesthetized rabbit model: intraurethral pressure (IUP) and mean arterial blood pressure (MAP); type: in vivo; conditions: i.v.; for durability of IUP response over time: slope of IUP response 2-7 minutes post the first peak, top 3 doses
Description: In general, IUP is the intraurethral pressure and is measured as the 2 minute mean from the first peak of the urethral response (FIG. 1). MAP is the mean arterial blood pressure and is measured as the average blood pressure during the 2 minute section where IUP is measured. The durability is the slope of the IUP response in mmHg/min and is calculated immediately after the 2 minute IUP response for 5 minutes (2-7 minutes post the first peak) for the top 3 doses.
Surgery: Female, Dutch Belted rabbits (1.20-2.0 kg, Myrtle's Rabbitry, Tenn.) were anesthetized with isoflurane (3.0% at 2 to 4 L/min) and urethane (1.5 grams/kg, s.c.). In preparation for surgery, the rabbits were shaved, scrubbed (i.e., perineal area, ventral neck, and ventral, caudal surface of the abdomen) and were administered Ringers Lactate Solution (s.c.) to maintain fluids. The femoral vein and carotid artery were isolated and cannulated with PE-50 and PE-90 tubing (Becton-Dickinson), respectively, for the administration of drugs (vein) and the measurement of blood pressure (artery). An abdominal incision was made, exposing the ureters and the bladder. The ureters were isolated and cannulated proximal to the urinary bladder with PE-50 tubing, to drain urine from the kidneys. […]
Experiment: The arterial cannula was connected to a P23XL pressure transducer (Grass Technologies, West Warwick, R.I.) and the arterial pressure transducer and Unisensor urethral transducer catheter were connected to an Gould 13-6615-50 amplifier (Data Sciences International, St. Paul, Minn.) and Gould TA6000 recorder (Data Sciences International, St. Paul, Minn.) in parallel. All data was analyzed using Power Lab Chart version 5.0.2 (ADInstruments, Colorado Springs, Colo.) data acquisition system. […]
Measurements: The change in IUP and MAP from baseline were measured as well as the slope of the IUP response. MAP was first calculated according to the following formula, where Pd is diastolic pressure and Ps is systolic pressure: MAP=Pd+⅓ (Ps−Pd). Pre-dose baseline values for IUP and MAP were assessed during a 2 min period just prior to vehicle or test compound administration. Post-dose values for IUP or MAP were determined during a 2 min period at the first peak in the IUP tracing following vehicle or test compound administration. The change in IUP and MAP induced by vehicle or test compound were then calculated by subtracting the pre-dose value from the post-dose value. The rate of decline (mmHg/min) in the IUP response was determined by taking the average slope during the 5 min. period immediately following the 2 min. efficacy measurement for the top three doses. […]

Cc1c(CC2=NCCN2)ccc(NS(C)(=O)=O)c1F [Formula I, N-[4-(4,5-Dihydro-1H-imidazol-2-ylmethyl)-2-fluoro-3-methyl-phenyl]-methanesulfonamide]
intrinsic activity, or efficacy, as a partial agonist (alpha-1A adrenoceptors; ideally between 0.35 to 0.60): 0.46
EC50 (alpha-1A adrenoceptors; read-out: affinity, or pEC50 value (converted)): 631 nM
maximum increase in MAP (arterial blood pressure) [1]: 10.62 mmHg
selectivity for enhancement of intraurethral pressure (IUP) over blood pressure (MAP) (Urethral Selectivity MAP/IUP = ED10 of MAP/ED10 of IUP) ([1]; at the 10 mmHg change in IUP level): 2.13 fold
durability of IUP response over time [1]: improved durability of IUP response over time
durability of IUP response over time ([1]; listed as formula I): increased durability of IUP response over time
